Assays:
[1] = test system: Mut1 (RNase H inactive mutant of HIV-1 RT); assay: Gel mobility shifts in native polyacrylamide gel electrophoresis (PAGE); type: binding
From the text: (§1) In the following experiment, the terms “34-mer” and “35-mer” refer to SEQ ID NO:3 (produced in example A1 above) and SEQ ID NO:4 (produced in example A2 above), respectively. […] Natural RT molecules have an RNase H activity which normally cleaves RNA molecules. […] This mutant is produced according to the method given in Schatz, O., Cromme, F. V., Grüninger-Leitch, F. and Le Grice, S. F. J., Febs Letter. Vol.257, No.2 p.311-314. This RT-mutant is further on referred to as Mut1. The following experiments are carried out:
2. Gel mobility shifts in polyacrylamide gel electrophoresis (PAGE) experiments.
a) Native 20% PAGE gel is run at 4-5° C. Samples are incubated at 4° C. in 50 mM hepes buffer and 5 mM magnesium chloride and varying salt concentrations as indicated below.
Samples are incubated for 90 min at 4° C. prior to a further 10 min incubation at 4° C. with ammonium sulphate and/or KCl. Samples applied to lanes 4 and 5 have twice the amount of 34-mer used for the other samples.
b) Native 20% PAGE gel run at 4-5° C. Samples are incubated at 4° C. in 50 mM hepes buffer and 5 mM magnesium chloride, with varying concentrations of ammonium sulphate.
Native 20% PAGE gel is run at 4-5° C. Samples are incubated at 4° C. in 50 mM hepes buffer, 15 mM manganese sulphate, 1 mM EDTA and 0.25 mM EGTA.
Samples are incubated 10 min at room temperature prior to a 60 min incubation at 4° C. One μl of sample solution is applied per lane. Electrophoresis is conducted with up to 400 volts while cooling to approximately 4° C. After 0.209 kWh the gel is silver stained.

[2] = test system: Mut1 (RNase H inactive mutant of HIV-1 RT); assay: Test of binding by gel filtration on a SMART system; conditions: starting amounts Mut1 210 pmol, oligonucleotide 630 pmol; Mut1 only 0.50 / 0.63
From the text: as §1
1. Test of binding by means of separation of the complex Mut1−34-mer (from Example A1) from excess 34-mer using gel filtration on a SMART system.
1. Mut1 is incubated with excess 34-mer for about 90 min at 4° C., buffer Tris-HCl, pH=8.0, containing 5 mM MgCl2. The mixture is then applied to a gel filtration column of a SMART™-type system, which allows simultaneous registration at two different wavelengths.
Starting amounts: Mut=210 pmol; 34-mer=630 pmol. The left peak is the complex Mut1−34-mer. The absorption at 260 nm (the upper curve) is now higher than the absorption at 280 nm (the lower curve): A260/A280=1.13. The right peak is the excess 34-mer, which has the characteristic absorption ratio for nucleic acids: A260/A280=2.01. […]

[3] = test system: panel of recombinant HIV 1 subtype B RTs; assay: RT binding inhibition (BIC) assay, whole RT panel; conditions: all conditions studied
Experimental: (iii) Protocol for RT binding inhibition (BIC) assay: The study was performed in a modified DNA polymerase assay. The inhibitors were serially diluted in five steps, enzyme dilution was added and the enzyme/inhibitor mixtures were incubated for 30 minutes at 33° C. Aliquots of the enzyme/inhibitor mixture were transferred to each well of a microtiter plate containing either immobilised primer, or primer/template. The enzyme was allowed to bind to the immobilised polymer for 90 min at 33° C. The amount of RT used was standardised to an activity corresponding to 40-60 pg (3.3-5.0×10^−16 mol) reference HIV-1 RT per well. The plates were then washed to remove unbound enzyme whereupon the amount of bound enzyme was determined by addition of the appropriate reaction solution for polymerisation (i e a reaction solution devoid of primer for studies of primer binding and a reaction solution devoid of both primer and template for studies of binding to primed template). The polymerase reaction was allowed to proceed for 3 hours at 33° C., whereupon the reaction was terminated by a wash of the plate.
The capacity of the indicated substances to inhibit the binding to primer or to primed DNA template of a panel of recombinant HIV 1 subtype B RTs was studied according to “Protocol for RT binding inhibition (BIC) assay” (protocol (iii) above).

Row | Molecule | Gel mobility of Mut1 in complex with oligonucleotide ([1]; native 20% PAGE at 4-5° C.) | Complex with Mut1 at high salt concentrations ([1]; native 20% PAGE, ammonium sulphate up to […]) | A260/A280 of the complex peak Mut1-oligonucleotide [2] | Capacity to prevent RT binding to primer or primed template [3]
1 | 34-mer: phosphorothioate RNA 34-mer corresponding to bases 10-43 in tRNALys3 with unmodified A, G, C and U nucleotides (example A1) | migrates faster than Mut1 alone | remains in complex with Mut1 | 1.13 | 
2 | Cc1ccnc2c1NC(=O)c1cccnc1N2C1CC1 [Nevirapine] |  |  |  | unable to prevent RT binding
